This note sets out measurements from patent US9259409B2, “Compositions comprising a prostaglandin for treating neuropsychiatric conditions” (Inceptum Research & Therapeutics, Inc., priority 2011, dated 2016).

The structures appear in SMILES notation.

One assay has as its system GSK-3. In words: Cytoplasmic β-catenin stabilization in HEK293T cells (Western blot). The format is cell-based, human. Particulars: 10 μM, vs DMSO-treated cells. On the procedure: Human embryonic kidney 293T (HEK293T) cells, U87MG astrocytoma and the human oligodendrocyte cell line MO3-13 were grown in Dubelco Minimal Eagle Media (DMEM) (Invitrogen, Carlsbad, Calif., USA) supplemented with 5% heat inactivated fetal bovine serum. Cells were grown to 70% confluence prior to treatment. […] Cells were exposed to drug for 3 hours at 37° C. in a 5% CO2 incubator. U87MG cells were grown to 70% confluence prior to treatment. Cells were treated with either DMSO vehicle (NT) or individually with 1, 5 and 10 μM latanoprost in DMEM lacking fetal bovine serum. Cells were exposed to treatments for 6 hours at 37° C. in a 5% CO2 incubator. The human oligodendrocyte cell line MO3-13 was grown and differentiated according to the methods described in McLaurin et al. (McLaurin, J., Trudel, G. C., Shaw, I. T., Antel, J. P., and Cashman, N. R., J. Neurobiol., 26: 283-293, 1995). On the third day of serum starvation, cells were treated with either DMSO vehicle (NT) or individually with 1, 5 and 10 μM latanoprost. Cells were exposed to treatments for 6 hours at 37° C. in a 5% CO2 incubator.
For detection of CREB and Serine-133 (S133)-phosphorylated CREB, serotonin receptor 5HT2A, TCF/LEF1, BDNF and TNF-total protein extracts were prepared from cell cultures using a sintered glass tissue homogenizer (Wheaton, Millville, N.J., USA) in phosphate-buffered saline (PBS), pH 7.5, 3M urea. For detection of β-catenin, cell cultures were washed with PBS, trypsinized, and pelleted at 1,000 rpm for 4 minutes. The cell pellets were washed and resuspended in cold hypotonic buffer consisting of 10 mM HEPES (pH 7.5), 1.5 mM MgCl2, 10 mM KCl, 0.5 mM DTT, and EDTA-free protease inhibitor (Roche, Laval, QC, Canada) in an ice bath for 5 minutes. The mixture was then homogenized using a dounce homogenizer and the cellular debris was pelleted by centrifugation at 4° C. Cytoplasmic fractions were recovered and used for assaying β-catenin.
Protein concentrations were determined by the Peterson method (Peterson, Analyt. Biochem., 83: 346-356, 1977). […]
(A western blot detects proteins with antibodies after separation by electrophoresis.)

In a further assay the test system is β-catenin. Nature of the assay: β-catenin stabilization in the brain of open field test mice (Western blot). Particulars: brains after open field test; relative to mice treated with saline; n=3. The format is in vivo, mouse. On the procedure: Following the open field test behavioral analysis of mice, the mice were euthanized and their brains were dissected and bifurcated along the longitudinal fissure. Brain samples from mice treated with vehicle (saline), latanoprost, or lithium were processed for β-catenin stabilization by extraction with hypotonic buffer. The levels of stabilized β-catenin were analyzed by Western blot, and the relative amounts of β-catenin (represented as the mean relative amount of three mice per group) were quantified.

As for `CC(C)OC(=O)CCC/C=C\C[C@@H]1[C@@H](CC[C@@H](O)CCc2ccccc2)[C@H](O)C[C@@H]1O` [latanoprost, propan-2-yl-(Z)-7-[(1R,2R,3R,5S)-3,5-dihydroxy-2-[(3R)-3-hydroxy-5-phenylpentyl]cyclopentyl]-hept-5-enoate], the “levels of cytoplasmic β-catenin” value in the assay on GSK-3 was “increased levels of cytoplasmic β-catenin”. For the same molecule, in the assay on β-catenin, the “levels of β-catenin in brain” value is reported as “significantly increased levels of β-catenin”.
